According to ChEMBL document CHEMBL3217590, “Discovery of a new class of dithiocarbamates and rhodanine scaffolds as potent antifungal agents: synthesis, biology and molecular docking” (Medchemcomm, 2012):
In brackets after ≈: the same amount, converted by molar mass.

How the values were obtained:
L929 [1] = test: Cytotoxicity against mouse L929 cells assessed as decline in cell survival at 12.5 to 50 ug/ml after 24 hrs by spectrophotometric analysis; format: cell-based; details: l929, 24 h
Candida albicans [2] = test: Anticandidal activity against Candida albicans CDRI after 24 to 48 hrs by broth microdilution technique; format: functional
Candida parapsilosis = test: Antifungal activity against Candida parapsilosis ATCC22019 after 24 to 48 hrs by broth microdilution technique; format: functional; details: Lodderomyces parapsilosis
Candida albicans [3] = test: Anticandidal activity against Candida albicans ATCC-MYA 2950 after 24 to 48 hrs by broth microdilution technique; format: functional
Sporothrix schenckii = test: Antifungal activity against Sporothrix schenckii after 72 to 96 hrs by broth microdilution technique; format: functional
Cryptococcus neoformans = test: Antifungal activity against Cryptococcus neoformans after 24 to 48 hrs by broth microdilution technique; format: functional
Candida albicans [4] = test: Anticandidal activity against Candida albicans MTCC183 after 24 to 48 hrs by broth microdilution technique; format: functional
Candida albicans [5] = test: Anticandidal activity against Candida albicans ATCC14053 after 24 to 48 hrs by broth microdilution technique; format: functional
Candida albicans [6] = test: Anticandidal activity against amphotericin-B resistant Candida albicans after 24 to 48 hrs by broth microdilution technique; format: functional
[7] = test system: Trichophyton mentagrophytes; test: Antifungal activity against Trichophyton mentagrophytes after 72 to 96 hrs by broth microdilution technique; format: functional
Candida albicans [8] = test: Anticandidal activity against Candida albicans ATCC10231 after 24 to 48 hrs by broth microdilution technique; format: functional
L929 [9] = test: Cytotoxicity against mouse L929 cells assessed as morphological changes up to 3.12 ug/ml after 24 hrs by giemsa staining based phase contrast microscopy; format: cell-based; details: l929, 24 h
Candida albicans [10] = test: Antifungal activity against Candida albicans after 24 to 48 hrs by broth microdilution technique; format: functional
Candida albicans [11] = test: Anticandidal activity against Candida albicans ATCC750 after 24 to 48 hrs by broth microdilution technique; format: functional
Candida albicans [12] = test: Anticandidal activity against Candida albicans isolated from patient after 24 to 48 hrs by broth microdilution technique; format: functional
Aspergillus fumigatus = test: Antifungal activity against Aspergillus fumigatus after 72 to 96 hrs by broth microdilution technique; format: functional
Candida albicans [13] = test: Ratio of fluconazole MIC to compound MIC against amphotericin-B resistant Candida albicans after 24 to 48 hrs by broth microdilution technique; format: functional

SMILES | Activity (L929 [1]) | MIC (Candida albicans [2]) | MIC (Candida parapsilosis) | MIC (Candida albicans [3]) | MIC (Sporothrix schenckii) | MIC (Cryptococcus neoformans) | MIC (Candida albicans [4]) | MIC (Candida albicans [5]) | MIC (Candida albicans [6]) | MIC [7] | MIC (Candida albicans [8]) | Activity (L929 [9]) | MIC (Candida albicans [10]) | MIC (Candida albicans [11]) | MIC (Candida albicans [12]) | MIC (Aspergillus fumigatus) | Ratio (Candida albicans [13])
O=C1/C(=C/c2cc3c(cc2[N+](=O)[O-])OCO3)SC(=S)N1Cc1ccncc1 | Toxic | 3.12 µg/mL (≈ 7.77 µM) | 3.12 µg/mL (≈ 7.77 µM) | 1.56 µg/mL (≈ 3.89 µM) | 1.56 µg/mL (≈ 3.89 µM) | 3.12 µg/mL (≈ 7.77 µM) | 3.12 µg/mL (≈ 7.77 µM) | 1.56 µg/mL (≈ 3.89 µM) | 12.5 µg/mL (≈ 31.1 µM) | 3.12 µg/mL (≈ 7.77 µM) | 3.12 µg/mL (≈ 7.77 µM) | Non-toxic | 0.78 µg/mL (≈ 1.94 µM) | 6.25 µg/mL (≈ 15.6 µM) | 1.56 µg/mL (≈ 3.89 µM) | > 50 µg/mL | 
O=C1/C(=C/c2ccccc2F)SC(=S)N1Cc1ccncc1 |  |  | 50 µg/mL (≈ 151 µM) |  | 1.56 µg/mL (≈ 4.72 µM) | 3.12 µg/mL (≈ 9.44 µM) |  |  |  | 6.25 µg/mL (≈ 18.9 µM) |  |  | 12.5 µg/mL (≈ 37.8 µM) |  |  | > 50 µg/mL | 
O=C1/C(=C/c2ccc(OCCCCOc3ccc(/C=C4\SC(=S)N(Cc5ccncc5)C4=O)cc3)cc2)SC(=S)N1Cc1ccncc1 |  |  | > 50 µg/mL |  | > 50 µg/mL | > 50 µg/mL |  |  |  | > 50 µg/mL |  |  | > 50 µg/mL |  |  | > 50 µg/mL | 
Clc1ccccc1C(c1ccccc1)(c1ccccc1)n1ccnc1 [CLOTRIMAZOLE] |  |  | 0.5 µg/mL (≈ 1.45 µM) |  | 4 µg/mL (≈ 11.6 µM) | 0.25 µg/mL (≈ 0.725 µM) |  |  |  | 2 µg/mL (≈ 5.8 µM) |  |  | 0.25 µg/mL (≈ 0.725 µM) |  |  | 2 µg/mL (≈ 5.8 µM) | 
O=C1/C(=C/c2ccccc2[N+](=O)[O-])SC(=S)N1Cc1ccncc1 |  | 50 µg/mL (≈ 140 µM) | 3.12 µg/mL (≈ 8.73 µM) | 50 µg/mL (≈ 140 µM) | 6.25 µg/mL (≈ 17.5 µM) | 6.25 µg/mL (≈ 17.5 µM) | 12.5 µg/mL (≈ 35 µM) |  | 3.12 µg/mL (≈ 8.73 µM) | 6.25 µg/mL (≈ 17.5 µM) |  |  | 3.12 µg/mL (≈ 8.73 µM) | 50 µg/mL (≈ 140 µM) | 25 µg/mL (≈ 69.9 µM) | > 50 µg/mL | 2
O=C1/C(=C/c2cccc3ccccc23)SC(=S)N1Cc1ccncc1 |  |  | 50 µg/mL (≈ 138 µM) |  | 12.5 µg/mL (≈ 34.5 µM) | 50 µg/mL (≈ 138 µM) |  |  |  | 25 µg/mL (≈ 69 µM) |  |  | 25 µg/mL (≈ 69 µM) |  |  | > 50 µg/mL | 
OC(Cn1cncn1)(Cn1cncn1)c1ccc(F)cc1F [FLUCONAZOLE] |  | 0.125 µg/mL (≈ 0.408 µM) | 0.5 µg/mL (≈ 1.63 µM) | 0.062 µg/mL (≈ 0.202 µM) | 4 µg/mL (≈ 13.1 µM) | 2 µg/mL (≈ 6.53 µM) | 4 µg/mL (≈ 13.1 µM) | 0.25 µg/mL (≈ 0.816 µM) | 8 µg/mL (≈ 26.1 µM) | 16 µg/mL (≈ 52.2 µM) | 1 µg/mL (≈ 3.27 µM) |  | 1 µg/mL (≈ 3.27 µM) | 0.5 µg/mL (≈ 1.63 µM) | 0.25 µg/mL (≈ 0.816 µM) | > 32 µg/mL | 
O=C1/C(=C/c2ccc(/C=C3\SC(=S)N(Cc4ccncc4)C3=O)cc2)SC(=S)N1Cc1ccncc1 |  |  | > 50 µg/mL |  | > 50 µg/mL | > 50 µg/mL |  |  |  | > 50 µg/mL |  |  | > 50 µg/mL |  |  | > 50 µg/mL | 
O=C1/C(=C/c2ccc(Cl)cc2)SC(=S)N1Cc1ccncc1 |  |  | > 50 µg/mL |  | > 50 µg/mL | > 50 µg/mL |  |  |  | > 50 µg/mL |  |  | 50 µg/mL (≈ 144 µM) |  |  | > 50 µg/mL | 
O=C1/C(=C/c2ccc([N+](=O)[O-])cc2)SC(=S)N1Cc1ccncc1 |  |  | > 50 µg/mL |  | 25 µg/mL (≈ 69.9 µM) | > 50 µg/mL |  |  |  | > 50 µg/mL |  |  | 50 µg/mL (≈ 140 µM) |  |  | > 50 µg/mL | 
S=C(NCc1ccncc1)SCc1ccccc1 | Toxic | 1.56 µg/mL (≈ 5.68 µM) | 1.56 µg/mL (≈ 5.68 µM) | 1.56 µg/mL (≈ 5.68 µM) | 6.25 µg/mL (≈ 22.8 µM) | 1.56 µg/mL (≈ 5.68 µM) | 0.39 µg/mL (≈ 1.42 µM) | 0.78 µg/mL (≈ 2.84 µM) | 12.5 µg/mL (≈ 45.6 µM) | 6.25 µg/mL (≈ 22.8 µM) | 1.56 µg/mL (≈ 5.68 µM) | Non-toxic | 1.56 µg/mL (≈ 5.68 µM) | 3.12 µg/mL (≈ 11.4 µM) | 1.56 µg/mL (≈ 5.68 µM) | 25 µg/mL (≈ 91.1 µM) | 
O=C1/C(=C/c2ccco2)SC(=S)N1Cc1ccncc1 | Toxic | 25 µg/mL (≈ 82.7 µM) | 50 µg/mL (≈ 165 µM) | 6.25 µg/mL (≈ 20.7 µM) | 3.12 µg/mL (≈ 10.3 µM) | 25 µg/mL (≈ 82.7 µM) | 3.12 µg/mL (≈ 10.3 µM) | 1.56 µg/mL (≈ 5.16 µM) | 6.25 µg/mL (≈ 20.7 µM) | 12.5 µg/mL (≈ 41.3 µM) |  | Non-toxic | 3.12 µg/mL (≈ 10.3 µM) |  |  | > 50 µg/mL | 1
